The IC50 is the concentration that inhibits the measured activity by half.

Counter-ions that a name gives are not always drawn.

Test [1] deals with T1, NLRP3 (Homo sapiens, UniProt Q96P20). Kind of test: THP-1 cells pyroptosis assay. More on the design: Seed THP-1 cells (25,000 cells/well) containing 1.0 μg/ml LPS in 40 μl of RPMI medium; host or cells: THP-1 cells. Conditions: LPS 1 μg/ml, compound 3 hrs, nigericin 5 μM 1 hr, resazurin readout. Type of test: cell-based. Here is the method: THP-1 cells (ATCC #TIB-202) were grown in RPMI containing L-glutamine (Gibco #11835) supplemented with 1 mM sodium pyruvate (Sigma #S8636) and penicillin (100 units/ml)/streptomycin (0.1 mg/ml) (Sigma #P4333) in 10% Fetal Bovine Serum (FBS) (Sigma #F0804). The cells were routinely passaged and grown to confluency (˜10^6 cells/ml). On the day of the experiment, THP-1 cells were harvested and resuspended into RPMI medium (without FBS). The cells were then counted and viability ([…]) checked by Trypan blue (Sigma #T8154). Appropriate dilutions were made to give a concentration of 625,000 cells/ml. To this diluted cell solution was added LPS (Sigma #L4524) to give a 1 μg/ml Final Assay Concentration (FAC). 40 μl of the final preparation was aliquoted into each well of a 96-well plate. The plate thus prepared was used for compound screening.
The following method step-by-step assay was followed for compound screening. • 1. Seed THP-1 cells (25,000 cells/well) containing 1.0 μg/ml LPS in 40 μl of RPMI medium (without FBS) in 96-well, black walled, clear bottom cell culture plates coated with poly-D-lysine (VWR #734-0317) • 2. Add 5 μl compound (8 points half-log dilution, with 10 μM top dose) or vehicle (DMSO 0.1% FAC) to the appropriate wells • 3. Incubate for 3 hrs at 37° C., 5% CO2 • 4. Add 5 μl nigericin (Sigma #N7143) (FAC 5 μM) to all wells • 5. Incubate for 1 hr at 37° C., 5% CO2 • 6. At the end of the incubation period, spin plates at 300×g for 3 mins and remove supernatant • 7. Then add 50 μl of resazurin (Sigma #R7017) (FAC 100 μM resazurin in RPMI medium without FBS) and incubate plates for a further 1-2 hrs at 37° C. and 5% CO2 • 8. Plates were read in an Envision reader at Ex 560 nm and Em 590 nm • 9. IC50 data is fitted to a non-linear regression equation (log inhibitor vs response-variable slope 4-parameters)

Test [2] concerns the target T1, NLRP3. In words: Human whole blood IL-1β release assay. Type of test: cell-based. More on the design: Plate out 80 μl of whole blood containing 1 μg/ml of LPS in 96-well, clear bottom cell culture plate; from tissue; host or cells: human whole blood from healthy donors. Conditions: LPS 1 μg/ml, compound 3 hrs, nigericin 10 μM 1 hr, IL-1β by AlphaLisa, read-out: HWB IC50. The method, then:
For systemic delivery, the ability to inhibit NLRP3 when the compounds are present within the bloodstream is of great importance. For this reason, the NLRP3 inhibitory activity of a number of compounds in human whole blood was investigated in accordance with the following protocol.
Human whole blood in Li-heparin tubes was obtained from healthy donors from a volunteer donor panel. • 1. Plate out 80 μl of whole blood containing 1 μg/ml of LPS in 96-well, clear bottom cell culture plate (Corning #3585) • 2. Add 10 μl compound (8 points half-log dilution with 10 μM top dose) or vehicle (DMSO 0.1% FAC) to the appropriate wells • 3. Incubate for 3 hrs at 37° C., 5% CO2 • 4. Add 10 μl nigericin (Sigma #N7143) (10 μM FAC) to all wells • 5. Incubate for 1 hr at 37° C., 5% CO2 • 6. At the end of the incubation period, spin plates at 300×g for 5 mins to pellet cells and remove […] of supernatant and add to 96-well v-bottom plates for IL-1β analysis (note: these plates containing the supernatants can be stored at −80° C. to be analysed at a later date) • 7. IL-1β was measured according to the manufacturer protocol (Perkin Elmer-AlphaLisa IL-1 Kit AL220F-5000) • 8. IC50 data is fitted to a non-linear regression equation (log inhibitor vs response-variable slope 4-parameters)

T1 sequence (Q96P20 whole entry): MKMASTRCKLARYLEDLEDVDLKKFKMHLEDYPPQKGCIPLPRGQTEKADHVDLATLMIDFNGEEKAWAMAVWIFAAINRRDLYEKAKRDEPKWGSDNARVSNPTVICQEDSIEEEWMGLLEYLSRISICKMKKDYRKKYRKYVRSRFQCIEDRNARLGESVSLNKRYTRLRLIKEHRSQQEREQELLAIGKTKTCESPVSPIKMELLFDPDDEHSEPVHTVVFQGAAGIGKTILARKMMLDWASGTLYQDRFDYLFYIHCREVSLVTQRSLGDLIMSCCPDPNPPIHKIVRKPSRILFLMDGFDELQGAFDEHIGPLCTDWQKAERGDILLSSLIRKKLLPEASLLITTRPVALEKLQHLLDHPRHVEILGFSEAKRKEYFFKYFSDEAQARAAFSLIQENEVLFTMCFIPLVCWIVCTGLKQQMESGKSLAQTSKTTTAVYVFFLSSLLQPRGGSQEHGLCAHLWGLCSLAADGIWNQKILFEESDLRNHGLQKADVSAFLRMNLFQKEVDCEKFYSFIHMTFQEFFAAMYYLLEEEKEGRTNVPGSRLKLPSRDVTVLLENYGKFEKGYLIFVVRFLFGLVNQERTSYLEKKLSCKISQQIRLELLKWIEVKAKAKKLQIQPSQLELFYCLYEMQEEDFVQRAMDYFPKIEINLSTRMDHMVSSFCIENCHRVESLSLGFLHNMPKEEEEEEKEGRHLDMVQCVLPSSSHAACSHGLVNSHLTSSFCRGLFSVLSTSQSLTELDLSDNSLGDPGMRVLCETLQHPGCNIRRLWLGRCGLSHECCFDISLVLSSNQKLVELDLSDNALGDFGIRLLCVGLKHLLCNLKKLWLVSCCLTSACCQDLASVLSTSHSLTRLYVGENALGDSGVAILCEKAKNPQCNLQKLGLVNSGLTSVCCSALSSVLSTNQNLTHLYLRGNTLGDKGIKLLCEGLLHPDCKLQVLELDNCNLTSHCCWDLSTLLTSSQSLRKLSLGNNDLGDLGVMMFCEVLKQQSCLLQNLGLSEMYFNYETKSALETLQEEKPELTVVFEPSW

Regarding `O=C1Nc2c(ccc3c2CCC3)-c2ccnc(c2)OCCc2cccc(c2)S(=O)(=O)N1` [Example 31, 22-oxa-14λ^6-thia-11,13,24-triaza-pentacyclo-[21.3.1.1^15,19.0^2,10.0^5,9]-octacosa-1(26),2,4,9,15(28),16,18,23(27),24-nonaene-12,14,14-trione, sodium salt], the IC50 is at most 100 nM on NLRP3 [1] and 100 to 500 nM at NLRP3 [2].
For `CC1(C)COc2nccc(c2F)-c2ccc3c(c2NC(=O)NS(=O)(=O)c2ccn1n2)CCC3` [Example 32, 26-fluoro-19,19-dimethyl-21-oxa-14λ^6-thia-11,13,18,23,27-pentaaza-pentacyclo[20.3.1.1^15,18.0^2,10.0^5,9]-heptacosa-1(26),2,4,9,15(27),16,22,24-octaene-12,14,14-trione, sodium salt], the IC50 against NLRP3 [1] and at NLRP3 [2] was 100 to 500 nM in each case.
For the compound `Cc1cnc2cc1-c1ccc3c(c1NC(=O)NS(=O)(=O)c1ccn(n1)C(C)(C)CO2)CCC3` [Example 33, 19,19,25-trimethyl-21-oxa-14λ^6-thia-11,13,18,23,27-pentaaza-pentacyclo-[20.3.1.1^15,18.0^2,10.0^5,9]-heptacosa-1(26),2,4,9,15(27),16,22,24-octaene-12,14,14-trione, sodium salt], the IC50 lay in the range of 500 to 1000 nM against NLRP3 [1] and 1000 to 5000 nM at NLRP3 [2].
The like results for `CC1(C)COc2cc(ccn2)-c2c(F)cc3c(c2NC(=O)NS(=O)(=O)c2ccn1n2)CCC3` [Example 34, 3-fluoro-19,19-dimethyl-21-oxa-14λ^6-thia-11,13,18,23,27-pentaazapentacyclo-[20.3.1.1^15,18.0^2,10.0^5,9]heptacosa-1(25),2,4,9,15(27),16,22(26),23-octaene-12,14,14-trione] were, in that order, at most 100 nM and 100 to 500 nM.
As for `Cc1cc2cc(n1)OCC(C)(C)n1ccc(n1)S(=O)(=O)NC(=O)Nc1c-2ccc2c1CCC2` [Example 36, 19,19,24-trimethyl-21-oxa-14λ^6-thia-11,13,18,23,27-pentaazapentacyclo-[20.3.1.1^15,18.0^2,10.0^5,9]heptacosa-1(26),2,4,9,15(27),16,22,24-octaene-12,14,14-trione], the IC50 was at most 100 nM against NLRP3 [1] and 500 to 1000 nM at NLRP3 [2].
Take `Cc1cc2c(c3c1-c1ccnc(c1)OCC(C)(C)n1ccc(n1)S(=O)(=O)NC(=O)N3)CCO2` [Example 37, 3,19,19-trimethyl-6,21-dioxa-14λ^6-thia-11,13,18,23,27-pentaaza-pentacyclo[20.3.1.1^15,18.0^2,10.0^5,9]-heptacosa-1(25),2(10),3,5(9),15(27),16,22(26),23-octaene-12,14,14-trione, sodium salt]: the half-inhibitory concentration (IC50) at NLRP3 [1] and at NLRP3 [2] was at most 100 nM throughout.
With `CC1(C)COc2cc(c(F)cn2)-c2ccc3c(c2NC(=O)NS(=O)(=O)c2ccn1n2)CCC3` [Example 38, 25-fluoro-19,19-dimethyl-21-oxa-14λ^6-thia-11,13,18,23,27-pentaaza-pentacyclo[20.3.1.1^15,18.0^2,10.0^5,9]-heptacosa-1(25),2,4,9,15(27),16,22(26),23-octaene-12,14,14-trione, sodium salt], the IC50 on NLRP3 [1] was in the range of 100 to 500 nM; on NLRP3 [2] it was 1000 to 5000 nM.
`O=C1Nc2c(ccc3c2CCC3)-c2ccnc(c2)OCC2(CCOCC2)n2ccc(n2)S(=O)(=O)N1` [Example 39, 21′-oxa-14′λ^6-thia-11′,13′,18′,23′,27′-pentaaza-spiro[oxane-4,19′-pentacyclo-[20.3.1.1^15,18.0^2,10.0^5,9]-heptacosan]-1′(25′),2′,4′,9′,15′(27′),16′,22′(26′),23′-octaene-12′,14′,14′-trione]: the concentration for half-maximal inhibition (IC50) on NLRP3 [1] is at most 100 nM; on NLRP3 [2], 100 to 500 nM.
On the same counts, the results for `O=C1Nc2c3c(cc(F)c2-c2ccnc(c2)OCCn2cc(F)c(n2)S(=O)(=O)N1)CCC3` [Example 40, 3,16-difluoro-21-oxa-14λ^6-thia-11,13,18,23,27-pentaaza-pentacyclo[20.3.1.1^15,18.0^2,10.0^5,9]-heptacosa-1(25),2(10),3,5(9),15(27),16,22(26),23-octaene-12,14,14-trione] are at most 100 nM and 100 to 500 nM.
The like results for `CC1(C)COc2cc(ccn2)-c2c(F)cc3c(c2NC(=O)NS(=O)(=O)c2nn1cc2F)CCC3` [Example 41, 3,16-difluoro-19,19-dimethyl-21-oxa-14λ^6-thia-11,13,18,23,27-pentaazapentacyclo-[20.3.1.1^15,18.0^2,10.0^5,9]heptacosa-1(25),2,4,9,15(27),16,22(26),23-octaene-12,14,14-trione, sodium salt] were, in that order, at most 100 nM and 100 to 500 nM.
On the same counts, the results for `O=C1Nc2c(ccc3c2CCC3)-c2cc(F)nc(c2)OCCn2cc(F)c(n2)S(=O)(=O)N1` [Example 42, 16,24-difluoro-21-oxa-14λ^6-thia-11,13,18,23,27-pentaazapentacyclo-[20.3.1.1^15,18.0^2,10.0^5,9]heptacosa-1(26),2,4,9,15(27),16,22,24-octaene-12,14,14-trione] are at most 100 nM and 100 to 500 nM.
With `CC(C)c1cc(F)cc2c1NC(=O)NS(=O)(=O)c1ccn(n1)C(C)(C)COc1cc-2ccn1` [Example 43, 4-fluoro-16,16-dimethyl-6-(propan-2-yl)-18-oxa-11λ^6-thia-8,10,15,20,24-pentaazatetracyclo-[17.3.1.1^12,15.0^2,7]tetracosa-1(22),2(7),3,5,12(24),13,19(23),20-octaene-9,11,11-trione], the concentration for half-maximal inhibition (IC50) at NLRP3 [1] and at NLRP3 [2] was 100 to 500 nM each time.
Turning to `CC(C)c1cc(F)cc2c1NC(=O)NS(=O)(=O)c1nn(cc1F)CCOc1cc-2ccn1` [Example 44, 4,13-difluoro-6-(propan-2-yl)-18-oxa-11λ^6-thia-8,10,15,20,24-pentaazatetracyclo[17.3.1.1^12,15.0^2,7]-tetracosa-1(22),2(7),3,5,12(24),13,19(23),20-octaene-9,11,11-trione, sodium salt], the IC50 is at most 100 nM at NLRP3 [1] and 100 to 500 nM at NLRP3 [2].
As for `Cc1c2ccnc1OCC(C)(C)n1ccc(n1)S(=O)(=O)NC(=O)Nc1c-2ccc2c1CCC2` [Example 45, 19,19,26-trimethyl-21-oxa-14λ^6-thia-11,13,18,23,27-pentaaza-pentacyclo[20.3.1.1^15,18.0^2,10.0^5,9]-heptacosa-1(25),2,4,9,15(27),16,22(26),23-octaene-12,14,14-trione, sodium salt], the IC50 at NLRP3 [1] and on NLRP3 [2] was 1000 to 5000 nM throughout.
As for `O=C1Nc2c(ccc3c2CCC3)-c2ccnc(c2)OC2CCC(C2)Cn2ccc(n2)S(=O)(=O)N1` (centres unmarked) [Example 46, 24-oxa-14λ^6-thia-11,13,18,26,31-pentaazahexacyclo-[23.3.1.1^15,18.1^20,23.0^2,10.0^5,9]hentriaconta-1(28),2,4,9,15(31),16,25(29),26-octaene-12,14,14-trione], the IC50 on NLRP3 [1] and on NLRP3 [2] was 1000 to 5000 nM each time.
For the compound `CC(C)c1cnn2c1NC(=O)NS(=O)(=O)c1nn(cc1F)C(C)(C)COc1cc-2ccn1` [Example 47, 12-fluoro-15,15-dimethyl-5-(propan-2-yl)-17-oxa-10λ^6-thia-2,3,7,9,14,19,23-heptaazatetracyclo-[16.3.1.1^11,14.0^2,6]tricosa-1(21),3,5,11(23),12,18(22),19-heptaene-8,10,10-trione], the IC50 against NLRP3 [1] and on NLRP3 [2] was 500 to 1000 nM in each case.
